Reference: the NIST ThermoML archive (doi:10.1016/j.jct.2012.01.002)
Values joined by “and” are separate entries in the source; they are usually repeats but may differ in a detail not shown here. Identical values can stand only once.

Assays:
[1] = xn = mol fraction of the nth substance listed; details: 101 kPa, Liquid, Vibrating tube method
[2] = 101.33 kPa, Liquid, Vibrating tube method

CCCCCCCC[N+](C)(CCCCCCCC)CCCCCCCC.O=S(=O)([N-]S(=O)(=O)C(F)(F)F)C(F)(F)F + CCCCO
mass density [kg/m3], [1]
Details	x1 = 0.0654	x1 = 0.1421	x1 = 0.2623	x1 = 0.3284	x1 = 0.4437	x1 = 0.5343	x1 = 0.6385	x1 = 0.7397	x1 = 0.8432	x1 = 0.9195
298.15 K	898.1	962	1018	1037.3	1060.4	1072.8	1083.4	1091	1097.9	1102.1
303.15 K	894.3	958.6	1014.6	1033.9	1056.8	1069.1	1079.8	1087.4	1094.2	1098.6
313.15 K	887.2	951.8	1007.6	1026.9	1049.7	1062.1	1072.7	1080.5	1087.2	1091.6

CCCCCCCC[N+](C)(CCCCCCCC)CCCCCCCC.O=S(=O)([N-]S(=O)(=O)C(F)(F)F)C(F)(F)F + CC(C)O
mass density [kg/m3], [1]
Details	x1 = 0.053	x1 = 0.1	x1 = 0.2045	x1 = 0.2841	x1 = 0.3934	x1 = 0.4824	x1 = 0.5896	x1 = 0.7066	x1 = 0.7967	x1 = 0.896
298.15 K	876.9	932.6	1004.9	1033.8	1056.2	1067.6	1078.9	1089	1095.2	1100.5
303.15 K	873	928.9	1001.5	1030.3	1052.6	1063.9	1075.2	1085.4	1091.6	1096.9
313.15 K	865.1	921.3	994.7	1023.3	1045.1	1056.6	1068.1	1078.3	1084.4	1089.5

CCC(C)O (centres undefined) [butan-2-ol] + CCOC(C)=O
mass density [kg/m3], [1]
Details	298.15 K	303.15 K	313.15 K
x1 = 0.0603	888.5	882.5	870.2
x1 = 0.1109	883.2	877.6	865.6
x1 = 0.1511	878.9	873.2	861.4
x1 = 0.1998	873.8	868.6	857.1
x1 = 0.2502	868.8	863.5	852.5
x1 = 0.302	863.6	858.4	847.5
x1 = 0.3489	858.9	853.9	843.2
x1 = 0.3988	854.1	849.2	838.7
x1 = 0.4506	849.4	844.4	834.3
x1 = 0.5011	844.6	839.9	829.9
x1 = 0.5631	839	834.3	824.5
x1 = 0.601	835.6	830.9	821.2
x1 = 0.6501	831.1	826.8	817.3
x1 = 0.7032	826.5	822.4	812.9
x1 = 0.752	822.5	818.3	808.9
x1 = 0.8012	818.4	814	805.1
x1 = 0.8498	814.6	810.1	801.4
x1 = 0.9028	810.3	805.8	797.4
x1 = 0.9519	806.7	802.4	794.4

CCCCCCCC[N+](C)(CCCCCCCC)CCCCCCCC.O=S(=O)([N-]S(=O)(=O)C(F)(F)F)C(F)(F)F
[2]
Details	mass density [kg/m3]
298.15 K	1106.9
303.15 K	1103.2
313.15 K	1095.7

CCCCCCCC[N+](C)(CCCCCCCC)CCCCCCCC.O=S(=O)([N-]S(=O)(=O)C(F)(F)F)C(F)(F)F + CCC(C)O
mass density [kg/m3], [1]
Details	x1 = 0.0654	x1 = 0.1397	x1 = 0.2623	x1 = 0.3282	x1 = 0.4054	x1 = 0.5045	x1 = 0.6051	x1 = 0.7046	x1 = 0.808	x1 = 0.9067
298.15 K	894.2	956.2	1013.8	1033.4	1050.6	1066.7	1078.5	1087.3	1094.6	1100.8
303.15 K	890.3	952.7	1010.2	1029.7	1046.9	1063	1074.8	1083.7	1091	1097.2
313.15 K	882.6	945.3	1003.1	1022.5	1039.7	1055.7	1067.6	1076.5	1083.9	1090

CCCCCCCC[N+](C)(CCCCCCCC)CCCCCCCC.O=S(=O)([N-]S(=O)(=O)C(F)(F)F)C(F)(F)F + CCOC(C)=O
mass density, [1]
Details	x1 = 0.1167	x1 = 0.2291	x1 = 0.4417	x1 = 0.5433	x1 = 0.7037	x1 = 0.7993	x1 = 0.9209
298.15 K	848.1 kg/m3 and 989.9 kg/m3	1034.5 kg/m3	1074.7 kg/m3	1085.4 kg/m3	1096.7 kg/m3	1101.3 kg/m3	1105.4 kg/m3
303.15 K	984.9 kg/m3	1029.5 kg/m3	1069.6 kg/m3	1080.3 kg/m3	1091.5 kg/m3	1096.2 kg/m3	1100.5 kg/m3
313.15 K	974.9 kg/m3	1020.9 kg/m3	1062.5 kg/m3	1073.4 kg/m3	1085 kg/m3	1089.6 kg/m3	1062.5 kg/m3 and 1094.1 kg/m3

CCOC(C)=O [ethyl acetate] + CCCCO
mass density [kg/m3], [1]
Details	298.15 K	303.15 K	313.15 K
x2 = 0.0904	886.5	880.4	869.6
x2 = 0.1337	882.3	876.8	866
x2 = 0.2525	871.5	866.7	856.6
x2 = 0.3723	860.7	856.6	846.8
x2 = 0.4807	851	847.5	838
x2 = 0.5955	840.9	838	828.8
x2 = 0.7032	831.5	828.8	820.1
x2 = 0.8009	823	820.6	812.3
x2 = 0.8916	815.1	813	805
x2 = 0.9641	808.6	806.7	799.4
x2 = 0.9795	807.3	805.3	798.1
